The record followed here is PMC3039689, “Identification of Small Molecule Lead Compounds for Visceral Leishmaniasis Using a Novel Ex Vivo Splenic Explant Model System” (PLoS Neglected Tropical Diseases, 2011).

A word on the CC50: it is the concentration giving 50% cytotoxicity. In general, EC50 refers to the concentration needed to bring the measured effect to its halfway point.

Like-named read-outs stand apart in the source and are kept apart here.

The nature of data set [1]: Cell toxicity (CC50) in the HepG2 cell line, CellTiter-Glo. It counts as cell-based, human. The conditions noted are these: human. As to the method: (§1) After 24 hours of culture at 37°C the number of viable cells was determined by quantification of the ATP present in the cell using the CellTiter-Glo luminescent Cell Viability Assay (Promega).
The test system of data set [2] is LUC-transfected L. donovani. The experiment in a line: Anti-leishmanial efficacy (EC50) in in vitro infected peritoneal macrophages. It counts as cell-based, Leishmania donovani. Particulars: 48 h, read-out: Peritoneal Macrophages EC50 (mean±SE). The protocol:
Macrophages from uninfected hamsters were obtained by peritoneal lavage with DMEM (Gibco) and Heparin (2 units/ml; Elkins-Sinn, Cherry Hill NJ). The cells were washed twice by centrifugation and re-suspended in culture medium composed of DMEM, 5% FBS, 1 mM sodium pyruvate (Gibco), 1X MEM amino acids solution (Sigma), 0.02% v/v/EDTA and 10 mM HEPES buffer (Cellgro). The peritoneal macrophages were adjusted to 5×10^5 cells/ml and allowed to adhere overnight at 37°C and 5% CO2 in flat bottom 96-well plates. Adherent macrophages were infected at 1∶5 ratio (cells:parasites) with stationary phase LUC-transfected L. donovani promastigotes and cultured at 37°C, 5% CO2, for 2 h. The extracellular parasites were then removed by washing with warm Dulbeco's PBS (Gibco). Infected macrophages were exposed to 2-fold serial dilutions of test compounds as described above for the ex vivo culture system. The infected macrophages were incubated for 48 hr in 5% CO2 atmosphere at 37°C. The number of surviving parasites was determined by luminometry and the effective concentration (EC50) calculated by linear regression (GraphPad Prism 5.0) as described above for the ex vivo system. The mean and standard error of the EC50 from 3 different experiments were considered as the final EC50. […] Tilorone was obtained from Hangzhou Trylead Chemical Tech (China). All compounds were dissolved in sterile dimethyl sulfoxide (analytical grade, cell culture tested; Sigma) and stored frozen at −20°C until used.

In data set [3] the test system is luciferase-transfected Leishmania donovani. The experiment in a line: Anti-leishmanial efficacy (EC50) in the ex vivo splenic explant model. Type of data set: cell-based. The protocol: To establish the plate assay for drug screening, the spleens from 2 infected hamsters were aseptically removed and placed in a Petri dish containing 5 mL of Collagenase D (Roche) at 2 mg/mL of buffer (10 mM Hepes pH 7.4, 150 mM NaCl, 5 mM KCl, 1 mM MgCl2, 1.8 mM CaCl2). The spleen was infiltrated by injection with approximately 2 mL of Collagenase solution, the tissue was cut into small pieces using sharp scissors, and incubated for 20 minutes at 37°C. The cell suspension and remaining tissue fragments were gently passed through a 100 µm cell strainer (B–D) to obtain a single cell suspension, which was washed twice by centrifugation (500 g for 7 min at 4°C) and re-suspended in culture medium composed of DMEM (Gibco), 5% FBS, 1 mM Sodium pyruvate (Gibco), 1X MEM amino acids solution (Sigma), 0.02% v/v/EDTA, 10 mM HEPES buffer (Cellgro) and 100 IU/mL Penicillin/100 […] Streptomycin solution (Cellgro).
The anti-leishmanial efficacy of the compounds was determined using the splenic explant model in a 96-well plate format. […] Because variation in the parasite burden between different explant cultures was expected, the concentration of cells used in each experiment was adjusted to give approximately 100 counts by luminometry (equivalent to ∼240,000 parasites). The number of surviving parasites was determined by luminometry as described above.

Data set [4] shares this test system. The experiment in a line: Primary screening of compound libraries in the ex vivo splenic explant model (Z score). It counts as cell-based. Particulars: 10 µM; for Outcome of library screening (significant Z score / hit): compounds as included in the libraries. The text has this: The following chemical libraries in 96-well plate format were screened: NINDS Custom Collection II (MicroSource Discovery Systems, Inc.), which consists of 1,040 classical therapeutic agents, established experimental inhibitors, receptor agonist drugs and other bioactive compounds [24], [25], [26]; the Pure Natural Products library (MicroSource Discovery Systems, Inc.) a collection of 800 pure natural products and derivatives; and The Diversity Set and Natural Products set (Developmental Therapeutics Program, NCI/NIH) a set of 2,195 compounds selected from the almost 140,000 compounds based on diversity of structure, [28], [29]. Libraries containing the compounds at 10 mM concentration in DMSO were diluted into master plates at 200 µM concentration in DMEM. The 200 µM master plates were further diluted by transferring an aliquot of 5 µl into a 96-well sterile white-bottom plate (Costar) containing 45 µl of culture medium at 4°C. Splenocytes (100,000 in 50 µl of culture medium) that had been obtained from infected hamsters as described above were added to the assay plate for a final drug concentration of 10 µM. The positive control (splenocytes treated with 0.2 µM Amphotericin B) and negative controls (0.1% DMSO vehicle) were distributed in the two outer columns (8 wells each) of each plate in alternating fashion to minimize any edge effect. After 48 hours of culture at 37°C in a humidified atmosphere and 5% CO2, the plates were centrifuged at 500 g for 7 min, the supernatant discarded using a multi- channel vacuum aspirator (Costar), and 20 µl of 1X cell culture lysis reagent (Promega) was added to the cells. To complete the lysis procedure the plates were frozen at −70°C and then thawed, and the luciferase activity determined in a plate luminometer following addition of 100 µl of the luciferin substrate at room temperature (Promega). The Z score was calculated for each compound as the mean counts of the compound tested minus the mean counts of all compounds in the plate divided by the SD all compounds in the plate. The mean Z score for each drug was calculated based on duplicate screenings performed in two different experiments. A Z score of ≤–1.96, which corresponds to a p value of ≤0.05 (95% confidence limit), was used as the threshold to identify the hits. […] The quality of each assay was determined by calculating the Z prime (Z') factor [31], which measures the discrimination between positive and negative controls in the screen. The Z' factor was calculated as 1 – [(3SD positive controls +3SD negative controls)/absolute value of (mean of the positive controls – mean of the negative controls)].

The next data set concerns HepG2 cells. Nature of the data set: Cell toxicity (CC50) in the HepG2 cell line, CellTiter-Glo. Type of data set: cell-based, human. Particulars: HepG2 cell line, 24 h, ATP luminescence; compound from screened library; read-out: HepG2 CC50 Mean. As to the method: as §1
(Cellular ATP, detected with luciferase, serves as a proxy for viable cell number.)

Where [5] appears, read: Leishmania donovani, ex vivo splenic explant, 48 h, luminometry, at least two experiments, compound from screened library, read-out: Ex vivo model EC50 Mean.
Where [6] appears, read: Leishmania donovani, Peritoneal macrophage, hamster peritoneal macrophages infected in vitro, luminometry, purchased compounds.
The mark [7] stands for this setting: Leishmania donovani, 48 h, 48 h of culture, luminometry, purchased compounds dissolved in DMSO, read-out: Ex vivo model EC50 (mean±SE).
Setting [8] is: ex vivo splenic explant, 48 h, luminometry, at least two experiments, compound from screened library, read-out: Ex vivo model EC50 Mean.

`CCCCCC[C@H]1C(=O)O[C@H](C)[C@H](NC(=O)c2cccc(NC=O)c2O)C(=O)O[C@@H](C)[C@@H]1OC(=O)CC(C)C` [ANTIMYCIN A]: the 50% cytotoxic concentration (CC50) at 24 h in data set [1] (HepG2 cell line, 24 h, ATP luminescence, compound from screened library, read-out: HepG2 CC50 Mean) turned out to be 58.4 µM. Also, the EC50 in data set [2] (Leishmania donovani, Peritoneal macrophage, in Mesocricetus auratus) is 1.67 ± 1.05 µM; in data set [3] (Leishmania donovani, 50% reduction in parasite counts in the ex vivo model, read-out: EC50 Mean (Table S2)), 11.6 µM; in data set [3] (Leishmania donovani, 48 h of culture, luminometry, purchased compounds dissolved in DMSO, read-out: Ex vivo model EC50 (mean±SE)), 1.27 ± 1.07 µM; in data set [3] (setting [5]) it was 11.6 µM.
On to `CCN(CC)C(=S)SSC(=S)N(CC)CC` [Disulfiram], for which, in data set [1], half-maximal cytotoxicity (CC50 at 24 h) was put at 53 µM. Also, the figures for the EC50 in data set [2] (setting [6]), in data set [3] (setting [7]) and in data set [3] (setting [5]) were 0.16 ± 0.03 µM, 0.31 ± 0.03 µM and 8.1 µM, respectively.
Consider `OC(Cn1cncn1)(Cn1cncn1)c1ccc(F)cc1F` [Fluconazole], for which, in data set [4], the “Outcome of library screening (significant Z score / hit)” value (shortened to “Outcome … (significant Z score / hit)”) is listed as “did not show a significant Z score”. In addition, the EC50 in data set [2] (setting [6]) and in data set [3] (setting [7]) was more than 250 µM each time. For the same compound, the “Activity in the ex vivo system (screen or EC50 determination)” value in data set [3] (transgenic L. donovani, ex vivo system) is reported as “no activity”.
On to `CCCCCCCCCCCCCCCCOP(=O)([O-])OCC[N+](C)(C)C` [Miltefosine], for which, in data set [4], the “Outcome … (significant Z score / hit)” value is given as “did not show a significant Z score”. Further, the EC50 in data set [2] (setting [6]) turned out to be 2.28 ± 0.21 µM; in data set [3] (setting [7]), 1.02 ± 0.08 µM; in data set [3] (Leishmania donovani, ex vivo model, freshly solubilized compound from commercial source, read-out: EC50), 1 µM. In addition, the “Anti-leishmanial activity, repeated testing” value in data set [3] (compound from the NCI chemical library) is “inactive”.
On to `CC[C@@]1([C@@H]2O[C@@H]([C@H]3O[C@@](O)(CO)[C@H](C)C[C@@H]3C)C[C@@H]2C)CC[C@H]([C@]2(C)CC[C@]3(C[C@H](O)[C@@H](C)[C@@H]([C@@H](C)[C@@H](OC)[C@H](C)C(=O)O)O3)O2)O1` [Monensin A], for which the concentration giving a half-maximal response (EC50) in data set [2] (setting [6]) was 0.23 ± 0.15 µM; in data set [3] (setting [7]), 0.85 ± 0.68 µM.
The matching figures for `CNCCC=C1c2ccccc2CCc2ccccc21` [Nortriptyline]: 2.65 ± 0.35 µM and 6.03 ± 0.28 µM.
`N=C(N)c1ccc(OCCCCCOc2ccc(C(=N)N)cc2)cc1` [Pentamidine] returned a Z score in data set [4] (48 h, duplicate screen, hit threshold -1.96) of −1.87. For the same compound, in data set [4], the “Outcome … (significant Z score / hit)” value is “did not show a significant Z score”. Also, the EC50 worked out at 0.89 ± 0.37 µM in data set [2] (setting [6]); 3.02 ± 0.34 µM in data set [3] (setting [7]); 3 µM in data set [3] (Leishmania donovani, Splenocyte, ex vivo splenocytes system, read-out: EC50).
Take `COc1ccc2c(=O)oc3c(OC)cc(CCN(C)C)c4c(=O)oc1c2c34` [Thaspine Acetate]: the CC50 in the data set with HepG2 cells was found to be 51.4 µM. Also, in data set [3] (setting [8]), the EC50 amounted to 2.7 µM.
The matching figures for `CSc1ccc2c(c1)N(CCCN(C)C)c1ccccc1S2` [Thiomethylpromazine]: 83.9 µM and 13 µM.
As to `O=c1c2ccccc2sc2c(CO)ccc(NCCN3CCCCC3)c12` [Thioxanthen-9-one, 4-(hydroxymethyl)-1-[(2-piperidinoethyl)amino]-; 9H-Thioxanthen-9-one, 4-(hydroxymethyl)-1-[[2-(1-piperidinyl)ethyl]amino]-], in the data set with HepG2 cells, the CC50 was 56 µM. Also, in data set [3] (setting [8]), the 50% effective concentration (EC50) stood at 9.1 µM.
Regarding `O=C1C=C2C=C[C@H]3C[C@]2(O1)[C@@H]1CCCCN13` [Virosecurinine], in the data set with HepG2 cells, the CC50 is 121 µM. Further, in data set [3] (setting [8]), the EC50 is 8.8 µM.
Regarding Benzalkonium Chloride, the CC50 in the data set on HepG2 cells is 38.6 µM. Also, the EC50 in data set [3] (setting [8]) is 6.4 µM.
For the compound Meglumine antimoniate, the EC50 stood at 146 ± 42 µM in data set [2] (hamster peritoneal macrophages infected in vitro, luminometry, purchased compounds) and 270 ± 57.5 µM in data set [3] (48 h of culture, luminometry, purchased compounds dissolved in DMSO, read-out: Ex vivo model EC50 (mean±SE)).
